Results as given in US20110027178A1, “IMAGING THE CENTRAL NERVOUS SYSTEM” (priority 2008, published 2011).

Target: T1, P2X7 receptor (Homo sapiens, UniProt Q99572)
T1 construct: expressed in transfected cells; host or cells: HEK.293 cells, transient transfection
T1 sequence (Q99572 1-595): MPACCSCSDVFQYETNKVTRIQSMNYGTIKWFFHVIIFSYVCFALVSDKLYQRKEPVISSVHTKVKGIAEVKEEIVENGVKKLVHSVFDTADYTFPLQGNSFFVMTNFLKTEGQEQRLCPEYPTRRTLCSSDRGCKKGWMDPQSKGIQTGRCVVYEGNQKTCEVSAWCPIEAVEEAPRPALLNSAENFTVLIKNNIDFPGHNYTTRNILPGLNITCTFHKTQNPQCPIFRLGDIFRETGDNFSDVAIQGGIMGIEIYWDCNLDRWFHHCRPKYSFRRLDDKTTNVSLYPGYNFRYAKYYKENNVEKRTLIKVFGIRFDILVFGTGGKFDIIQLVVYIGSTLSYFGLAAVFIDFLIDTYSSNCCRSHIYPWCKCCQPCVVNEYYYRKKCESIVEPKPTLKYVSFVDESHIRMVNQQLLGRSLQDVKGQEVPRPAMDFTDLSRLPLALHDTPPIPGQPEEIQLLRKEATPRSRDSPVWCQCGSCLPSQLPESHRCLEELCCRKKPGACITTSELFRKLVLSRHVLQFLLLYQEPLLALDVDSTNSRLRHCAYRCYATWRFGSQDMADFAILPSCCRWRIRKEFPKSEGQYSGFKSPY
Assay: Pore-forming assay (Yo Pro-1 dye uptake), P2X7 receptor functional assay
Format: cell-based
Conditions: P2X7 transfected HEK.293 cells, Bz-ATP 30 μM, Yo Pro-1 1 μM, triplicate
From the text: Non-radioactive versions of the Imaging Agents illustrated in Table I were screened in a P2X7 receptor functional assay. This assay is described in Example 9 and is based upon the ability of the P2X7 receptor to form a non-selective pore in P2X7 transfected HEK.293 cells upon activation with an agonist, thereby allowing dye to permeate the cells. The non selective P2X channel antagonist used as a reference inhibitor for the evaluation of the non-radioactive compound of the invention was pyridoxal-phosphate-6-azophenyl-2′,4′-disulfonate (PPADS), and the results of the assay are provided in Table I above.
The assay method used was based on the ability of the DNA binding dye, Yo Pro-1 (quinolinium, 4[3-methyl-2(3H)-benzoxazolylidene) methyl]-1-[3-(trimethyl-ammonio) propyl]-[…]) to enter through the dilated or “large pore form” of the P2X7 receptor and to bind to intracellular DNA/RNA whereupon it increases fluorescence intensity. Yo Pro-1 was therefore used to quantify inhibition of P2X7 function. This assay was based on the methods published by Michel et al., (B.J. Pharmacol 1998; 125: 1194-1201).
Initially, HEK.293 cells were transiently transfected using LipofectamineTMLTX (Invitrogen) for 72 hrs with P2X7 cDNA. 48 hours prior to use the cells were seeded into poly-D-lysine coated 96-well black-walled, clear bottomed plates, at a density of 30,000 cells/well. Stock solutions of each test compound were prepared at a concentration of 40 mM in 100% DMSO
Following the 48 hour incubation the culture medium was removed from the transfected cells, the cells were washed once and placed in pre-warmed sucrose assay buffer (Sucrose: 280 mM, KCl: 5 mM, CaCl2: 0.5 mM, glucose: 10 mM, HEPES: 10 mM, N-methyl-D-glucamine: 10 mM; pH7.4). The test compounds were added to the plate at a concentration of 10 μM and 100 nM in triplicate and incubated at 37° C. for 30 minutes. The final DMSO concentration in the assay was 1%. After this time Yo Pro-1 dye and Bz-ATP solution was added at concentrations of 1 μM and 30 μM respectively for 60 minutes at 37° C. The fluorescence was then read at 485 nm excitation and 530 nm emission.
The non-selective P2X channel antagonist PPADS was used as a reference inhibitor in the assay. A dose-response to PPADS was performed on the assay plate using a starting concentration of 200 μM followed by a 1 in 6 serial dilution covering 200 μM to 0.4 nM. For each compound data set, a percentage inhibition value was calculated based on the three assay points generated.

Row | % Inhibition (test compound 100 nM) | % Inhibition (test compound 10 μM) | Compound
1 | 10.0% | 69.6% | [18F]c1ncccc1Cn1nnnc1-c1cccc(Cl)c1Cl [Non-radioactive Imaging Agent 5]
2 | 0.00% | 62.0% | O=C(CC12CC3CC(CC(C3)C1)C2)Nc1cccc2nc(NCCNCCOCC[18F])ccc12 [Non-radioactive Imaging Agent 3]
3 | 22.0% | 72.0% | O=C1CSC(=O)N1C(CCc1ccncc1)COc1ccc(-c2cc([N+](=O)[O-])ccc2F)cc1 (stereo not drawn) [Non-radioactive Imaging Agent 2, 3-[1-(2′-Fluoro-5′-nitro-biphenyl-4-yloxymethyl)-3-pyridin-4-yl-propyl]-thiazolidine-2,4-dione]
